This note sets out measurements from patent US10174013B2, “Benzimidazole derivatives as kinase inhibitors” (SELVITA S.A., priority 2012, dated 2019).

Structures are written as SMILES. Like-named read-outs stand apart in the source and are kept apart here.

One data set has as its target DYRK1 (Homo sapiens (Human), UniProt Q13627). Kind of data set: ADP-Glo Kinase Assay, DYRK1. Type of data set: biochemical. The following applies: 1 μM compound; for inhibition at 1 µM: read-out: DYRK1A % INH (1 μM). The method in brief:
(§1)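 Buffer was MOPS 5 mM (pH 7.5) with MgCl2, EDTA and DTT; ATP set at apparent Km per kinase. Compounds were diluted in assay buffer to 1000 nM. Kinase-generated ADP was converted to luciferase signal and normalised to percent inhibition.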
A general note: ADP-Glo first removes unused ATP, then detects ADP through luciferase.

The next data set concerns the target FLT3wt (Homo sapiens (Human), UniProt P36888). The experiment in a line: ADP-Glo Kinase Assay, Flt3 wt. The following applies: 1 μM compound; for inhibition at 1 µM: read-out: Flt3wt % INH (1 μM). The class given is biochemical. The method in brief: as §1
In a further data set the test system is HEL92 cells. Kind of data set: Growth inhibition, MTS assay, HEL92. Type of data set: cell-based, Human. The conditions noted are these: MTS cell viability, read-out: HEL92 ED50. A general note: Formazan colour is commonly taken as a measure of viable cells.
The subject of a further data set is HepG2 cells. Kind of data set: Growth inhibition, MTS assay, HepG2. The class given is cell-based, Human. The following applies: MTS cell viability, read-out: HepG2 ED50.
A further data set deals with MV4-11 cells. Kind of data set: Growth inhibition, MTS assay, MV4-11. Type of data set: cell-based, Human. The following applies: MTS cell viability, read-out: MV4-11 ED50.
A further data set has as its target Pim-3 (Homo sapiens (Human), UniProt Q86V86). Kind of data set: ADP-Glo Kinase Assay, Pim-3. The class given is biochemical. The following applies: 1 μM compound; for inhibition at 1 µM: read-out: Pim-3 % INH (1 μM). The method in brief: as §1
The next data set addresses Pim-2 (Homo sapiens (Human), UniProt Q9P1W9). The experiment in a line: ADP-Glo Kinase Assay, Pim-2. The following applies: 1 μM compound. Type of data set: biochemical. The gist of the method: as §1
The next data set deals with Pim-1 (Homo sapiens (Human), UniProt P11309). Kind of data set: ADP-Glo Kinase Assay, Pim-1. The class given is biochemical. The conditions noted are these: 1 μM compound; for inhibition at 1 µM: read-out: Pim-1 % INH (1 μM). The gist of the method:
as §1

A further data set concerns the target hERG potassium channel (Homo sapiens (Human), UniProt Q12809). The experiment in a line: hERG automated patch clamp assay (QPatch HT). The protocol: The hERG (human ether-A-go-go-related gene) channel corresponds to an important anti-target for potential new drugs since its inhibition may lead to sudden death. In order to establish whether the compounds of the present invention act on hERG, the following experiment was carried out.
The in vitro effects of the compounds indicated in Table 5 on the hERG potassium channel current (a surrogate for Iκr, the rapidly activating, delayed rectifier cardiac potassium current) expressed in mammalian cells were evaluated at room temperature using the QPatch HT® (Sophion Bioscience A/S, Denmark), an automatic parallel patch clamp system. Each compound indicated in Table 5 was evaluated at 0.1, 1, 3, 10 and 30 μM with each concentration tested in a minimum of two cells (n≥2). The duration of exposure to each compound concentration was 3 minutes.
(In general: hERG is a cardiac potassium channel; its block is linked to QT prolongation.)

The target in another data set is CDK2/E (Homo sapiens (Human), UniProt P24941). The experiment in a line: ADP-Glo Kinase Assay, CDK2/E. The class given is biochemical. The conditions noted are these: 1 μM compound; for inhibition at 1 µM: read-out: CDK2/E % INH (1 μM). The gist of the method:
as §1

A further data set relates to SW-480 cells. Kind of data set: Growth inhibition, MTS assay, SW-480. The class given is cell-based, Human. The conditions noted are these: 72 hours, MTS cell viability, read-out: SW-480 ED50.

Chain of Pim-1 (P11309 whole entry): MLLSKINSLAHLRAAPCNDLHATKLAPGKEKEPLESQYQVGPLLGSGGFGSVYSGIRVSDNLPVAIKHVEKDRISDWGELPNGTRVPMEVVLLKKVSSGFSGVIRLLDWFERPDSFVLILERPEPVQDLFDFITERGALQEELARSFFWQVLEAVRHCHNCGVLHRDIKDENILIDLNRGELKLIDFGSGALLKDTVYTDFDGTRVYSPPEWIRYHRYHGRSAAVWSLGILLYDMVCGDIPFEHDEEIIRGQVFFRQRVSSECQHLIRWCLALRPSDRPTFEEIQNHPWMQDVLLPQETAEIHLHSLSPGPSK
Chain of FLT3wt (P36888 27-993): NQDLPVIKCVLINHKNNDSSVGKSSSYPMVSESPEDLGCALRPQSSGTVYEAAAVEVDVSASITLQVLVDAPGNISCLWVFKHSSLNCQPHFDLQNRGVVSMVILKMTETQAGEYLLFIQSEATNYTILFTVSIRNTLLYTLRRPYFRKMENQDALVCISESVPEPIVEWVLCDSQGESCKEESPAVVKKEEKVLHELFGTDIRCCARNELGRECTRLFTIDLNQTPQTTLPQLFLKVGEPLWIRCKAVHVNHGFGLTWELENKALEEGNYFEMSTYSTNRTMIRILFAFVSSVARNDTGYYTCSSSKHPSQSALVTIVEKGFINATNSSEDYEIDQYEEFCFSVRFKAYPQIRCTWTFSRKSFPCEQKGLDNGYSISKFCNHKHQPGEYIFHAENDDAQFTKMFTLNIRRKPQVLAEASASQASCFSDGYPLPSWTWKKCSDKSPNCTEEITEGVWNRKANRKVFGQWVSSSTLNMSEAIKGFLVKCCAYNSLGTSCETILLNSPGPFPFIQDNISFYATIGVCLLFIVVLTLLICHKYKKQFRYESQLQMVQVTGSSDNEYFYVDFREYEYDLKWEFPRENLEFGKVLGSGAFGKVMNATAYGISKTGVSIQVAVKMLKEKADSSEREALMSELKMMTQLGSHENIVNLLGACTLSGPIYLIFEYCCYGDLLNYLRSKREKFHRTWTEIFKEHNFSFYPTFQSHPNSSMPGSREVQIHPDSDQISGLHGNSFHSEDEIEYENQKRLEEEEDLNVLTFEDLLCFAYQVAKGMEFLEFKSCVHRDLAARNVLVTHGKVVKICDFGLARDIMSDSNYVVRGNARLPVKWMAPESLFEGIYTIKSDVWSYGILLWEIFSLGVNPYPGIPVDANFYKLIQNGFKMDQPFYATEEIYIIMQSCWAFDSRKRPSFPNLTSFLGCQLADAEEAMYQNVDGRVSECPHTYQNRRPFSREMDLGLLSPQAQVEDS
Chain of hERG potassium channel (Q12809 whole entry): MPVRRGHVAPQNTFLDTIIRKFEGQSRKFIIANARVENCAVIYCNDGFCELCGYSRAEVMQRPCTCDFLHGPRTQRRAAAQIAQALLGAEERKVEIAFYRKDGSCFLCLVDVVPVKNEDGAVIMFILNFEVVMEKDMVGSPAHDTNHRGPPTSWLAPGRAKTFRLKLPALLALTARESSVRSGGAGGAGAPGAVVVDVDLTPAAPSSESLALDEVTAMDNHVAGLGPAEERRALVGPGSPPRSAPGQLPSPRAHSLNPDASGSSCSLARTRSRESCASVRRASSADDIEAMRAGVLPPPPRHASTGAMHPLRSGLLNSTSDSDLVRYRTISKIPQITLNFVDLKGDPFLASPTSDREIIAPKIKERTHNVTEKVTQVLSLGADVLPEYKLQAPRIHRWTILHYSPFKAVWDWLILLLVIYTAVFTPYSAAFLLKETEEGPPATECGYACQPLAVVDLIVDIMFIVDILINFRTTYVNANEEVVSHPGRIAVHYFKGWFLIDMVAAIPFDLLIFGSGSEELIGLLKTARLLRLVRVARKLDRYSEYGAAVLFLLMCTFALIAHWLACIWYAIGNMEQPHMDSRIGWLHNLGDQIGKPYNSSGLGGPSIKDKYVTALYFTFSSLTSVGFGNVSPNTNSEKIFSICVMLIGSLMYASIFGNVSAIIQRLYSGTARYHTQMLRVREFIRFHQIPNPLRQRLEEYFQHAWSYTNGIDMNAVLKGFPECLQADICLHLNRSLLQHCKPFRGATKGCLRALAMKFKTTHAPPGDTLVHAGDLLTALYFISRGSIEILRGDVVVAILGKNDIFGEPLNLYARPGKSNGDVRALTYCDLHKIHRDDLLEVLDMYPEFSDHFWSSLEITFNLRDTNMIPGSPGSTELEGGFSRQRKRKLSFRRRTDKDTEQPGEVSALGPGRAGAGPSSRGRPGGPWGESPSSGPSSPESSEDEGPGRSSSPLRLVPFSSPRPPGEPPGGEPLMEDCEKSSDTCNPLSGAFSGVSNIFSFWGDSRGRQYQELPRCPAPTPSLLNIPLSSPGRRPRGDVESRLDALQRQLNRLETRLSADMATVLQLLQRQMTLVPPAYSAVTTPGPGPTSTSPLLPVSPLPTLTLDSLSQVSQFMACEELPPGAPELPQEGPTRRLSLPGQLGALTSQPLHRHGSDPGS
Chain of Pim-2 (Q9P1W9 whole entry): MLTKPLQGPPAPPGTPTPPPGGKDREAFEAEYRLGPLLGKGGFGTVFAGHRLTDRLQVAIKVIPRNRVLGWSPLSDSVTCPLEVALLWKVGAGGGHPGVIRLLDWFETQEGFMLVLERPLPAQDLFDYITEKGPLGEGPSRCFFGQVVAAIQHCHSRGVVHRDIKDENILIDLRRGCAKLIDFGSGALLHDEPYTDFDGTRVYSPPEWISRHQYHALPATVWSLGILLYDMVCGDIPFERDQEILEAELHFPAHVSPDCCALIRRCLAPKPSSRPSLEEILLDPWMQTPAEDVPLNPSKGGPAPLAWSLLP

On to `CC(C)n1c(N2CCOC(CN)C2)nc2c([N+](=O)[O-])c(Br)c(Br)cc21` (centres unmarked) [Example 1AQ], for which the inhibition at 1 µM on DYRK1 is 22%; at FLT3wt it was less than 5%; at Pim-3, 83%; at Pim-2 (read-out: Pim-2 % INH (1 μM)), 40%; at Pim-1, greater than 95%; on CDK2/E, less than 5%. The IC50 is 9600 nM with HEL92 cells (Homo sapiens, 72 h); 4900 nM with HepG2 cells (Homo sapiens, HepG2, 72 h); 2500 nM in the data set on MV4-11 cells (Homo sapiens, MV4-11, 72 h); 1860 nM on hERG potassium channel (human, 3 min).
On to `CCCn1c(NCCCN)nc2c([N+](=O)[O-])c(Br)c(Br)cc21` [Example 1P], for which, at DYRK1, the “DYRK1A % INH (1 μM)” value is recorded as 23%. In addition, at FLT3wt, the “Flt3wt % INH (1 μM)” value was 37%. The IC50 stood at 2900 nM in the data set on SW-480 cells; 7000 nM with HEL92 cells (72 hours); 1500 nM in the data set with HepG2 cells (72 hours); 1400 nM in the data set on MV4-11 cells (72 hours); 1880 nM at hERG potassium channel. Besides, at Pim-3, the “Pim-3 % INH (1 μM)” value stood at 77%. For the same molecule, the “Pim-2 % INH (1 μM)” value on Pim-2 was found to be 36%. For the same molecule, on Pim-1, the “Pim-1 % INH (1 μM)” value is greater than 95%. On CDK2/E, the “CDK2/E % INH (1 μM)” value is less than 5%.
Consider `CCn1c(N2CCNC(=O)C2)nc2c([N+](=O)[O-])c(Br)c(Br)cc21` [Example 22A, 4-(5,6-dibromo-1-ethyl-4-nitro-1H-1,3-benzodiazol-2-yl)piperazin-2-one], for which the inhibition at 1 µM at FLT3wt was 8%; on Pim-3 it was 28%; at Pim-1, 65%; on CDK2/E it was less than 5%. The IC50 on hERG potassium channel (read-out: hERG IC50, automated patch clamp, room temperature, 0.1-30 μM, 3 minutes exposure) came to 10100 nM.
For `CCn1c(NC2CCCCC2N)nc2c([N+](=O)[O-])c(Br)c(Br)cc21` (centres unmarked) [Example 22L, 1-N-(5,6-dibromo-1-ethyl-4-nitro-1H-1,3-benzodiazol-2-yl)cyclohexane-1,2-diamine], the inhibition at 1 µM on DYRK1 is 17%; on FLT3wt, less than 5%; on Pim-3, greater than 95%; at Pim-1 it was 80%; at CDK2/E, less than 5%. In addition, the IC50 is 1200 nM in the data set on SW-480 cells (Homo sapiens, SW480); 3200 nM with HEL92 cells (Homo sapiens, 72 h); 1300 nM in the data set on HepG2 cells (Homo sapiens, HepG2, 72 h); 1900 nM in the data set with MV4-11 cells (Homo sapiens, MV4-11, 72 h); 850 nM at hERG potassium channel.
For `CCn1c(N2CCN(CCCN3CCNCC3)CC2)nc2c([N+](=O)[O-])c(Br)c(Br)cc21` [Example 22R, 5,6-dibromo-1-ethyl-4-nitro-2-{4{3-(piperazin-1-yl)propyl]piperazin-1-yl}-1H-1,3-benzodiazole], the IC50 in the data set with SW-480 cells (Homo sapiens, SW480) stood at 500 nM; with HEL92 cells (Homo sapiens, 72 h) it was 2900 nM; in the data set with HepG2 cells (Homo sapiens, HepG2, 72 h) it was 1200 nM; in the data set on MV4-11 cells (Homo sapiens, MV4-11, 72 h), 1100 nM; at hERG potassium channel, 1780 nM.
